Experimental data as given in publication PMC9057582, “HIF inhibitor 32-134D eradicates murine hepatocellular carcinoma in combination with anti-PD1 therapy” (The Journal of Clinical Investigation, 2022).

Key:
[1] = system: HIF-1α and HIF-2α protein; experiment: Immunoblot of nuclear extracts of Hep3B cells; assay type: cell-based, human; conditions: 5 μM, 24 hours
Protocol: Figure 1 Identification of HIF inhibitors. (A) Hep3B-c1 cells were stably transfected with firefly luciferase (FLuc) reporter p2.1, which contains a hypoxia-response element (HRE), and Renilla luciferase (RLuc) reporter pSVR. (B) Hep3B-c1 cells were incubated with vehicle (Veh; 0.1% DMSO; blue bars) or 10 μM 32-134D (red bars) at 20% O2 (n = 6) or 1% O2 (n = 12) for 24 hours. Cell lysates were assayed for Fluc/Rluc activity (mean ± SEM); *P < 0.05 versus vehicle (χ^2 test). (C) Chemical structures and IC50 values for HIF inhibitors. (D and E) Hep3B cells were exposed to 20% O2 with vehicle, or 1% O2 with vehicle (blue bar), 32-134D (red bars), 33-063 (green bars), or PT2385 (brown bars) for 24 hours and CA9 (D) and EPO (E) mRNAs were quantified by RT-qPCR. […] (F) Hep3B cells were exposed to 20% or 1% O2 in the presence of vehicle or 1% O2 in the presence of 5 μM 32-134D (n = 3 each) for 24 hours. RNA sequencing identified genes with hypoxia-induced expression (blue circle) and genes that were inhibited by 32-134D (orange circle), based on FDR < 0.05 and fold change > 1.5. (G) Hep3B cells were exposed to 20% or 1% O2 for 24 hours in the presence of vehicle or 5 μM 32-134D, nuclear extracts were prepared, and immunoblot assays were performed. […]

[2] = Hematologic indices, serum EPO and organ histology in mice; assay type: in vivo, C57BL/6J mice; conditions: 14 days
Protocol: To investigate the effect of 32-134D on erythropoiesis, C57BL/6J mice (n = 4 per group) received a daily intraperitoneal injection of vehicle or 32-134D at a dose of 40 or 80 mg/kg/day for 14 days.
Figure 8 Effect of 32-134D on red blood cell indices. Mice (n = 4 per group) were treated with vehicle (V) or 32-134D (40 mg/kg/day) for 14 days and peripheral blood was analyzed for red blood cell count (RBC), hemoglobin (Hgb), hematocrit (Hct), reticulocytes, mean corpuscular hemoglobin (MCH), mean corpuscular hemoglobin concentration (MCHC), mean corpuscular volume (MCV), and absolute reticulocyte count (A) or EPO levels in serum (B).
To analyze blood parameters, male C57BL/6J mice were treated with vehicle or 32-134D by daily intraperitoneal injection for 14 days. Blood was collected by cardiac puncture into EDTA-coated tubes for analysis of hematologic indices at the Johns Hopkins Mouse Phenotyping Core. Blood collected into noncoated tubes was allowed to clot for 2 hours at room temperature, centrifuged at 2000g for 20 minutes, and serum samples were subjected to EPO ELISA according to the manufacturer’s instructions (Supplemental Table 6). Organs including heart, liver, kidney, small intestine, colon, lungs, and brain were harvested, fixed in formalin for 24 hours, and embedded in paraffin for histopathological investigation. Hematoxylin and eosin staining was performed by the Johns Hopkins Reference Histology Services.
Supplemental Figure 9. Normal organ histology in mice treated with 32-134D. Mice were administered vehicle or 32-134D (40 or 80 mg/kg) by daily intraperitoneal injection for 14 days and tissue sections from the indicated organs were stained with hematoxylin and eosin. Scale bar = 20 µm.
(1 picture or pasted object on this page, not shown here)

Brc1ccc2c(-c3csc(-c4c[nH]c5c(Br)cccc45)n3)c[nH]c2c1 [Compound 32-134D]
HIF-1α protein expression [1]: inhibited
histology of brain, colon, heart, kidney, liver, lungs, and small intestine ([2]; 40 or 80 mg/kg ip): no changes
red blood cell count, hemoglobin, hematocrit, reticulocyte count, MCV, MCH, MCHC versus vehicle ([2]; 40 or 80 mg/kg/day ip): not significantly different
serum EPO levels versus vehicle ([2]; ELISA): no significant difference
